Measured values published in paper PMC12457078, “Inhibition of soluble epoxide hydrolase in endotoxin induced pig lung injury” (Frontiers in Pharmacology, 2025).
Like-named read-outs stand apart in the source and are kept apart here.

What was measured:
Recombinant porcine sEH = target: T1, Recombinant porcine sEH (Sus scrofa, UniProt Q6Q2C2); assay: fluorescent activity assay (MNPC substrate), sEH inhibition potency; format: biochemical, pig
T1 construct: made in house
T1 sequence (Q6Q2C2 1-555): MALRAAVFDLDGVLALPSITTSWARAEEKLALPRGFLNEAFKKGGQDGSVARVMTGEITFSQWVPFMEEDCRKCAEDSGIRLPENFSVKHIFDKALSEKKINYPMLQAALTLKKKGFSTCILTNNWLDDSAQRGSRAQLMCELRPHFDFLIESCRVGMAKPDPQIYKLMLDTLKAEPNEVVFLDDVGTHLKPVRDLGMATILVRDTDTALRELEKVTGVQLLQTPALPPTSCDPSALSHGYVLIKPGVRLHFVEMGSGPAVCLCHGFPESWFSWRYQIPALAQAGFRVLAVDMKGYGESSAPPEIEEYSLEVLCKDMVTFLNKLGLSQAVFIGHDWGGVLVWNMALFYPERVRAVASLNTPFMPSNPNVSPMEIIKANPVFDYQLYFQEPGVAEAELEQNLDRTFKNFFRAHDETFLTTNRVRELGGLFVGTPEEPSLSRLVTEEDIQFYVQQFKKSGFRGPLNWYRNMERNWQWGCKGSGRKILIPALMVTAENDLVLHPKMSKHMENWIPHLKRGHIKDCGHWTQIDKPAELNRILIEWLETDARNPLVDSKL

[1] = liver microsomal assay (metabolic stability); format: in vitro ADME, pig; conditions: pig liver microsomes, NADPH generating system, 35 min
Protocol: To further characterize the inhibitors with regard to suitability for administration in pigs, a microsomal assay was used to determine metabolic stability ([Ackley et al., 2004]) for a subset of eight inhibitors chosen for their potency and availability. Microsomal preparations from pig liver were purchased from XenoTech (Kansas City, KS, US). Microsomes, buffer and NADPH generating system were combined, and then the inhibitor was added. The reaction was stopped after 35 min with ice cold acetonitrile containing internal standard (12-[[(cyclohexylamino)carbonyl]amino]-dodecanoic acid). The amount left of parent inhibitor was determined with LC-MS/MS.

[2] = 5 min preincubation 37 °C, MNPC 5 µM, read-out: Pig sEH IC50

Row | IC50 (Recombinant porcine sEH; [2]) | Liver microsomal stability: Amount remaining after 35 min (% of initial) [1] | Structure (SMILES) | IC50 (Recombinant porcine sEH)
1 | 0.105 µM | – | O=C(Nc1cccc2ccccc12)NC1CCCCC1 [Compound 59] | –
2 | – | 1 ± 0.1 % of initial | O=C(O)CCCCCCCCCCCNC(=O)NC12CC3CC(CC(C3)C1)C2 [Compound 700] | –
3 | – | – | CC(=O)N1CCC(NC(=O)Nc2ccc(OC(F)(F)F)cc2)CC1 [Compound 1555] | 0.197 µM
4 | 0.04 µM | – | O=C(O)CCCCCCCCCCCNC(=O)Nc1ccc(OC(F)(F)F)cc1 [Compound 1663] | –
5 | 0.005 µM | – | COC(=O)c1ccc(NC(=O)NC23CC4CC(CC(C4)C2)C3)cc1O [Compound 1671] | –
6 | 0.019 µM | – | O=C(Nc1ccc(OC(F)(F)F)cc1)N[C@H]1CC[C@@H](Oc2ccc(C(=O)O)cc2)CC1 [Compound 1686] | –
7 | 0.034 µM | 78 ± 3 % of initial | O=C(Nc1ccc(OC(F)(F)F)cc1)N[C@H]1CC[C@H](Oc2ccc(C(=O)O)cc2)CC1 [Compound 1728] | –
8 | 0.07 µM | – | CC(C)C(=O)N1CCC(NC(=O)Nc2ccc(C(F)(F)F)cc2)CC1 [Compound 2389] | –
9 | 0.06 µM | – | CCCC(=O)N1CCC(NC(=O)Nc2ccc(C(F)(F)F)cc2)CC1 [Compound 2413] | –
10 | 0.107 µM | – | CCC(C)C(=O)N1CCC(NC(=O)Nc2cc(C(F)(F)F)cc(C(F)(F)F)c2)CC1 (centres unmarked) [Compound 2421] | –
11 | 0.038 µM | – | CC(C)C(=O)N1CCC(NC(=O)Nc2ccc(OC(F)(F)F)cc2)CC1 [Compound 2422] | –
12 | 0.044 µM | – | O=C(Nc1ccc(C(F)(F)F)cc1)NC1CCN(C(=O)CC(F)(F)F)CC1 [Compound 2714] | –
13 | 0.048 µM | 66 ± 1 % of initial | CNc1nc(C)nc(N[C@H]2CCC[C@@H](C(=O)NCc3ccc(C#N)cc3C(F)(F)F)C2)n1 [Compound 2946] | –

Row | Structure (SMILES) | IC50 (Recombinant porcine sEH; [2]) | Liver microsomal stability: Amount remaining after 35 min (% of initial) [1] | IC50 (Recombinant porcine sEH)
14 | CCC(C)C(=O)N1CCC(NC(=O)Nc2ccc(OC(F)(F)F)cc2)CC1 (centres unmarked) [Compound 2385] | – | 55 ± 3 % of initial | 0.019 µM
